Reference: patent US20120101110A1, “Diaza-spiro[5.5]undecanes” (priority 2010, published 2012)
Values belong to the molecule of their own block, whether it stands above or below them.

Assays:
human orexin 1 receptors [1] = biological target: T1, human orexin 1 receptors (Homo sapiens, UniProt O43613); test: Calcium accumulation in cells (FLIPR), hOx1R; conditions: for inhibition at 10 µM: read-out: FLIPR hOx1R % inhibition value
T1 sequence (O43613 1-425): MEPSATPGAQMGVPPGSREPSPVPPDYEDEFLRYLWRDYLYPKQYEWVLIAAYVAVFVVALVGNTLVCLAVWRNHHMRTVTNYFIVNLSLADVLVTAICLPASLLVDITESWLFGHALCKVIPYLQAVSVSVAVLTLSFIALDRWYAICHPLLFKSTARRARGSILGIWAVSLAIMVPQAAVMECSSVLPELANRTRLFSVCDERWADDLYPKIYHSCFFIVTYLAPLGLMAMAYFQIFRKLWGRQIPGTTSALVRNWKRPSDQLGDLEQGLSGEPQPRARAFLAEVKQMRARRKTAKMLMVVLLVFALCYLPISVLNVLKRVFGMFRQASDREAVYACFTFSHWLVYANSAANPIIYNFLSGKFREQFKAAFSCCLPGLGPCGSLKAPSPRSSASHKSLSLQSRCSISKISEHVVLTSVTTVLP

human orexin 2 receptors [2] = biological target: T2, human orexin 2 receptors (Homo sapiens, UniProt O43614); test: Radioligand binding assay ([3H]-SB649868 competition), hOx2R; conditions: competition with about 1 nM [3H]-SB649868; CHO or HEK cell membranes expressing human orexin 2 receptor; read-out: binding hOx2R Kd
T2 sequence (O43614 1-444): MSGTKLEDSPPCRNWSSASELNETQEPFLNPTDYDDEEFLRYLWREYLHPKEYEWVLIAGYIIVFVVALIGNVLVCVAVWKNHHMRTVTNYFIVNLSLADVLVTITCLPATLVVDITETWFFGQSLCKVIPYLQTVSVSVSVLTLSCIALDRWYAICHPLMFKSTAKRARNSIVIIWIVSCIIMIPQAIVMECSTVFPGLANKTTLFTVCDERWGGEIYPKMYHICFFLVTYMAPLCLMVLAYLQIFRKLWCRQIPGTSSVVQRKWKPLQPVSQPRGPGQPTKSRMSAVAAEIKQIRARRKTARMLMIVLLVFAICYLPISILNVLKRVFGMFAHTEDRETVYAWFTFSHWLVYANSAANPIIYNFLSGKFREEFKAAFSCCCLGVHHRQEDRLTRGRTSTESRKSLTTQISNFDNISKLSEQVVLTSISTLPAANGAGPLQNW
Method: (§1) The cell pellet was either stored at −80° C. or used directly. Before the experiments, cell membranes were re-suspended in binding assay buffer (10 mM HEPES, 0.5% (w/v) bovine serum albumin, pH 7.5) by homogenisation with a Polytron homogeniser at 50 Hz for 20 s. Cell membranes were also used as made available by commercial providers.
(§2) Bound radioactivity was measured, and data were analysed with the program XLFIT or Graphpad Prism. Protein concentration was determined according to the Bradford/BioRad Protein Assay Kit.
(§3) In competition experiments, cell homogenates (150 μl) were incubated in assay buffer (10 mM HEPES, pH 7.5, 0.5% (w/v) bovine serum albumin, 5 mM MgCl2, 1 mMCaCl2, and tween 0.05%) for 1 h at room temperature with about 1 nM of the radioligand [^3H]-SB649868, 66 Ci/mmole, 50 μl), and with various concentrations of compounds of the invention (50 μl) in triplicates; non-specific binding was determined in the presence of almorexant (10 μM).

human orexin 2 receptors [3] = biological target: T2, human orexin 2 receptors; test: Calcium accumulation in cells (FLIPR), hOx2R; assay type: cell-based; conditions: cells expressing human orexin 2 receptor; inhibition of orexin A-induced calcium accumulation; Cheng and Prusoff correction
human orexin 1 receptors [4] = biological target: T1, human orexin 1 receptors; test: Radioligand binding assay ([3H]-SB649868 competition), hOx1R; conditions: competition with about 1 nM [3H]-SB649868; CHO or HEK cell membranes expressing human orexin 1 receptor
Method: as §1, §2
as §3, with “μM). Reactions were terminated by vacuum filtration, 3 washes of ice cold wash buffer (Tris-HCl pH 7.4/10 mM, with NaCl 154 mM). Competition data is expressed in Table 2 as Kd [μM].” for “μM).”

Structure (SMILES): Cc1cc(C)nc(N2CCC3(CCCN(Cc4ccccc4-n4nccn4)C3=O)CC2)n1 [Example 2, 2-(2-(2H-1,2,3-triazol-2-yl)benzyl)-9-(4,6-dimethylpyrimidin-2-yl)-2,9-diazaspiro[5.5]undecan-1-one]
- inhibition at 10 µM (human orexin 1 receptors [1]): 22%
- Kd (human orexin 2 receptors [2]): 259 nM
- Ki (human orexin 2 receptors [3]): 86 nM
- Kd (human orexin 1 receptors [4]): > 10000 nM

Structure (SMILES): Cc1cc(C)nc(N2CCC3(CCCC(=O)N3Cc3cccc4[nH]ccc34)CC2)n1 [Example 3, 1-((1H-indol-4-yl)methyl)-9-(4,6-dimethylpyrimidin-2-yl)-1,9-diazaspiro[5.5]undecan-2-one]
- Ki (human orexin 1 receptors [1]): 381 nM
- Kd (human orexin 2 receptors [2]): 12 nM
- Ki (human orexin 2 receptors [3]): 0.9 nM
- Kd (human orexin 1 receptors [4]): 483 nM

Structure (SMILES): COc1cc(C)nc(N2CCC3(CCCN(Cc4c[nH]c5ccccc45)C3=O)CC2)n1 [Example 4, 2-((1H-indol-3-yl)methyl)-9-(4-methoxy-6-methylpyrimidin-2-yl)-2,9-diazaspiro[5.5]undecan-1-one]
- Ki (human orexin 1 receptors [1]): 135 nM
- Kd (human orexin 2 receptors [2]): 43 nM
- Ki (human orexin 2 receptors [3]): 2.2 nM
- Kd (human orexin 1 receptors [4]): 863 nM

Structure (SMILES): Cc1cc(C)nc(N2CCC3(CCCN(Cc4c[nH]c5ccccc45)C3=O)CC2)n1 [Example 5, 2-((1H-indol-3-yl)methyl)-9-(4,6-dimethylpyrimidin-2-yl)-2,9-diazaspiro[5.5]undecan-1-one]
- Ki (human orexin 1 receptors [1]): 870 nM
- Kd (human orexin 2 receptors [2]): 35 nM
- Ki (human orexin 2 receptors [3]): 10 nM
- Kd (human orexin 1 receptors [4]): 966 nM

Structure (SMILES): Cc1cc(C)nc(N2CCC3(CCCN(Cc4cn(C)c5ccccc45)C3=O)CC2)n1 [Example 6, 9-(4,6-dimethylpyrimidin-2-yl)-2-((1-methyl-1H-indol-3-yl)methyl)-2,9-diazaspiro[5.5]undecan-1-one]
- Ki (human orexin 1 receptors [1]): 1530 nM
- Kd (human orexin 2 receptors [2]): 153 nM
- Ki (human orexin 2 receptors [3]): 26 nM
- Kd (human orexin 1 receptors [4]): 4540 nM

Structure (SMILES): Cc1cncc(N2CCC3(CCCC(=O)N3Cc3c[nH]c4ccccc34)CC2)n1 [Example 7, 1-((1H-indol-3-yl)methyl)-9-(6-methylpyrazin-2-yl)-1,9-diazaspiro[5.5]undecan-2-one]
- inhibition at 10 µM (human orexin 1 receptors [1]): 14%
- Kd (human orexin 2 receptors [2]): 698 nM
- Ki (human orexin 2 receptors [3]): 86 nM
- Kd (human orexin 1 receptors [4]): 7440 nM

Structure (SMILES): Cc1cccc(N2CCC3(CCCN(Cc4c[nH]c5ccccc45)C3=O)CC2)n1 [Example 9, 2-((1H-indol-3-yl)methyl)-9-(6-methylpyridin-2-yl)-2,9-diazaspiro[5.5]undecan-1-one]
- Ki (human orexin 1 receptors [1]): 1560 nM
- Kd (human orexin 2 receptors [2]): 265 nM
- Ki (human orexin 2 receptors [3]): 54 nM
- Kd (human orexin 1 receptors [4]): 2430 nM

Structure (SMILES): N#Cc1ccnc(N2CCC3(CCCN(Cc4c[nH]c5ccccc45)C3=O)CC2)c1 [Example 10, 2-(2-((1H-indol-3-yl)methyl)-1-oxo-2,9-diazaspiro[5.5]undecan-9-yl)isonicotinonitrile]
- Ki (human orexin 1 receptors [1]): 1190 nM
- Kd (human orexin 2 receptors [2]): 116 nM
- Ki (human orexin 2 receptors [3]): 20 nM
- Kd (human orexin 1 receptors [4]): 1720 nM

Structure (SMILES): Cc1cncc(N2CCC3(CCCN(Cc4c[nH]c5ccccc45)C3=O)CC2)n1 [Example 11, 2-((1H-indol-3-yl)methyl)-9-(6-methylpyrazin-2-yl)-2,9-diazaspiro[5.5]undecan-1-one]
- Ki (human orexin 1 receptors [1]): 1390 nM
- Kd (human orexin 2 receptors [2]): 244 nM
- Ki (human orexin 2 receptors [3]): 23 nM
- Kd (human orexin 1 receptors [4]): 6590 nM

Structure (SMILES): Cc1ccnc(N2CCC3(CCCN(Cc4c[nH]c5ccccc45)C3=O)CC2)n1 [Example 12, 2-((1H-indol-3-yl)methyl)-9-(4-methylpyrimidin-2-yl)-2,9-diazaspiro[5.5]undecan-1-one]
- Ki (human orexin 1 receptors [1]): 1500 nM
- Kd (human orexin 2 receptors [2]): 56 nM
- Ki (human orexin 2 receptors [3]): 30 nM
- Kd (human orexin 1 receptors [4]): 1170 nM

Structure (SMILES): COc1ccnc(N2CCC3(CCCN(Cc4c[nH]c5ccccc45)C3=O)CC2)n1 [Example 13, 2-((1H-indol-3-yl)methyl)-9-(4-methoxypyrimidin-2-yl)-2,9-diazaspiro[5.5]undecan-1-one]
- Ki (human orexin 1 receptors [1]): 527 nM
- Kd (human orexin 2 receptors [2]): 74 nM
- Kd (human orexin 1 receptors [4]): 924 nM

Structure (SMILES): Cc1cc(C)nc(N2CCC3(CCCN(Cc4ccccc4-c4ccco4)C3=O)CC2)n1 [Example 15, 9-(4,6-dimethylpyrimidin-2-yl)-2-(2-(furan-2-yl)benzyl)-2,9-diazaspiro[5.5]undecan-1-one]
- Ki (human orexin 1 receptors [1]): 855 nM
- Kd (human orexin 2 receptors [2]): 109 nM
- Ki (human orexin 2 receptors [3]): 13 nM
- Kd (human orexin 1 receptors [4]): 2830 nM

Structure (SMILES): Cc1cc(C)nc(N2CCC3(CCCN(Cc4cccc5c4OCCO5)C3=O)CC2)n1 [Example 20, 2-((2,3-dihydrobenzo[b][1,4]dioxin-5-yl)methyl)-9-(4,6-dimethylpyrimidin-2-yl)-2,9-diazaspiro[5.5]undecan-1-one]
- Ki (human orexin 1 receptors [1]): 2530 nM
- Kd (human orexin 2 receptors [2]): 211 nM
- Ki (human orexin 2 receptors [3]): 42 nM
- Kd (human orexin 1 receptors [4]): 8550 nM

Structure (SMILES): Cc1cc(C)nc(N2CCC3(CCCN(Cc4cccc(-c5noc(C)n5)c4)C3=O)CC2)n1 [Example 22, 9-(4,6-dimethylpyrimidin-2-yl)-2-(3-(5-methyl-1,2,4-oxadiazol-3-yl)benzyl)-2,9-diazaspiro[5.5]undecan-1-one]
- Ki (human orexin 1 receptors [1]): 755 nM
- Kd (human orexin 2 receptors [2]): 151 nM
- Ki (human orexin 2 receptors [3]): 31 nM
- Kd (human orexin 1 receptors [4]): 1300 nM

Structure (SMILES): Cc1cc(C#N)cc(N2CCC3(CCCN(Cc4cccc(-c5ncccn5)c4)C3=O)CC2)n1 [Example 28, 2-methyl-6-(1-oxo-2-(3-(pyrimidin-2-yl)benzyl)-2,9-diazaspiro[5.5]undecan-9-yl)isonicotinonitrile]
- Ki (human orexin 1 receptors [1]): 1110 nM
- Kd (human orexin 2 receptors [2]): 150 nM
- Ki (human orexin 2 receptors [3]): 49 nM
- Kd (human orexin 1 receptors [4]): 5140 nM

Structure (SMILES): Cc1cc(C#N)cc(N2CCC3(CCCN(Cc4cccc(-c5ncc(C)o5)c4)C3=O)CC2)n1 [Example 29, 2-methyl-6-(2-(3-(5-methyloxazol-2-yl)benzyl)-1-oxo-2,9-diazaspiro[5.5]undecan-9-yl)isonicotinonitrile]
- Ki (human orexin 1 receptors [1]): 351 nM
- Kd (human orexin 2 receptors [2]): 100 nM
- Ki (human orexin 2 receptors [3]): 28 nM
- Kd (human orexin 1 receptors [4]): 907 nM

Structure (SMILES): Cc1cc(C)nc(N2CCC3(CCCN(Cc4cccc(-c5ncccn5)c4)C3=O)CC2)n1 [Example 31, 9-(4,6-dimethylpyrimidin-2-yl)-2-(3-(pyrimidin-2-yl)benzyl)-2,9-diazaspiro[5.5]undecan-1-one]
- Ki (human orexin 1 receptors [1]): 1610 nM
- Kd (human orexin 2 receptors [2]): 145 nM
- Ki (human orexin 2 receptors [3]): 92 nM
- Kd (human orexin 1 receptors [4]): 3810 nM

Structure (SMILES): Cc1cc(C#N)nc(N2CCC3(CCCN(Cc4cccc(-c5ncccn5)c4)C3=O)CC2)n1 [Example 32, 6-methyl-2-(1-oxo-2-(3-(pyrimidin-2-yl)benzyl)-2,9-diazaspiro[5.5]undecan-9-yl)pyrimidine-4-carbonitrile]
- Ki (human orexin 1 receptors [1]): 1860 nM
- Kd (human orexin 2 receptors [2]): 383 nM
- Ki (human orexin 2 receptors [3]): 59 nM
- Kd (human orexin 1 receptors [4]): > 10000 nM

Structure (SMILES): N#Cc1ccnc(N2CCC3(CCCN(Cc4cccc(-c5ncccn5)c4)C3=O)CC2)n1 [Example 33, 2-(1-oxo-2-(3-(pyrimidin-2-yl)benzyl)-2,9-diazaspiro[5.5]undecan-9-yl)pyrimidine-4-carbonitrile]
- Ki (human orexin 1 receptors [1]): 477 nM
- Kd (human orexin 2 receptors [2]): 220 nM
- Ki (human orexin 2 receptors [3]): 37 nM
- Kd (human orexin 1 receptors [4]): 744 nM

Structure (SMILES): N#Cc1cccc(N2CCC3(CCCN(Cc4cccc(-c5ncccn5)c4)C3=O)CC2)n1 [Example 34, 6-(1-oxo-2-(3-(pyrimidin-2-yl)benzyl)-2,9-diazaspiro[5.5]undecan-9-yl)picolinonitrile]
- Ki (human orexin 1 receptors [1]): 554 nM
- Kd (human orexin 2 receptors [2]): 674 nM
- Ki (human orexin 2 receptors [3]): 73 nM
- Kd (human orexin 1 receptors [4]): 2290 nM

- Kd (human orexin 2 receptors [2]): 3 nM
- Kd (human orexin 1 receptors [4]): 52 nM
Structure (SMILES): COC(=O)c1ccc2[nH]cc(CN3CCCC4(CCN(c5nc(C)cc(C)n5)CC4)C3=O)c2c1 [Example 115, Methyl 3-((9-(4,6-dimethylpyrimidin-2-yl)-1-oxo-2,9-diazaspiro[5.5]undecan-2-yl)methyl)-1H-indole-5-carboxylate]
